Assay results published in patent US12071424B2, “IRE1 small molecule inhibitors” (Cornell University, priority 2017, dated 2024).

Columns and labels:
[1] = system: IRE1a-dependent XBP1 splicing; assay: Inhibition of IRE1a-dependent XBP1 splicing in mice with metastatic ovarian cancer; assay type: in vivo, mouse; conditions: single oral dose 45 mg/kg, 24 hours, FACS-isolated ascites cells
Experimental: Mice (n=3) with established metastatic ovarian cancer were orally gavaged with 45 mg/kg vehicle control or inhibitor dissolved in H2O. The Inhibitor was Compound C. Compound C is 2-chloro-N-(5-(2-(((1r,4r)-4-dimethylamino)cyclohexyl)amino)-8-ethylquinazolin-6-yl)-6-methylpyridin-2-yl)benzenesulfonamide, Compound 91, described herein. After 24 hours, mice were euthanized, ascites-resident cells were extracted and tumor cells, dendritic cells (DCs), and CD4+ T cells were isolated by FACS. The samples were used for subsequent if RT-qPCR analysis of beta-actin, XBP1s and total XBP1. Gene expression was evaluated by quantitative PCR for XBP1s and total XBP1 transcripts using the 2^(−ΔCT) method for calculating normalized gene expression. Gene expression levels were normalized to Actb transcripts. XBP1 splicing is calculated as XBP1s expression divided by total XBP1 expression. A single oral dose of Compound C suppressed IRE1a-dependent XBP1 splicing in tumor cells and relevant immune cells in vivo over 24 hours, FIG. 7.
Mice (n=3) with established metastatic ovarian cancer were orally gavaged with 45 mg/kg vehicle control or inhibitor dissolved in H2O. […] Gene expression was evaluated by quantitative PCR for XBP1s and total XBP1 transcripts using the 2^(−ΔCT) method for calculating normalized gene expression. […] XBP1 splicing is calculated as XBP1s expression divided by total XBP1 expression. […]

[2] = system: IRE1a-mediated XBP1 splicing; assay: Target engagement in pancreas and salivary gland (RT-qPCR XBP1 splicing); assay type: in vivo; conditions: mouse, 30 mg/kg oral gavage, 6 hours; compared to control and Compound B
Experimental: Mice (n=3 per group) were orally gavaged with 30 mg/kg vehicle control or IRE1 inhibitors dissolved in H2O. After 6 hours, mice were euthanized and pancreas and salivary gland tissues were isolated, snap frozen on dry ice, and used for subsequent RT-qPCR analysis of beta-actin, XBP1s and total XBP1. Gene expression was evaluated by quantitative PCR for XBP1s and total XBP1 transcripts using the 2^(−ΔCT) method for calculating normalized gene expression. Gene expression levels were normalized to Actb transcripts. XBP1 splicing is calculated as XBP1s expression divided by total XBP1 expression.

[3] = Metabolic assays of N,N-dimethyl compounds; assay type: in vitro ADME; conditions: data not shown
IRE1a [4] = assay: IRE1a phosphorylation inhibition assay (immunoblot, 293T cells, tunicamycin); assay type: cell-based, human
Experimental: Inhibition of ER stress-induced IRE1a phosphorylation and XBP1s protein accumulation in human 293T cells assessed. Immunoblot analysis was performed in human 293T cells lysates obtained from cells after exposure to the chemical ER stress-inducing agent tunicamycin, and optional treatment with Compound C. Lysates were probed with antibodies recognizing IRE1a, phosphorylated IRE1a, XBP1, or TATA-binding protein (TBP). (TBP) was blotted as a protein loading control. […] See FIG. 8, 20 nM was sufficient to reduce XBP1s protein levels below the limit of detection in this assay.

IRE1a/XBP1 pathway = assay: Inhibition of endogenous XBP1 splicing in 293T cells with tunicamycin; assay type: cell-based, human
Experimental: Gene expression was evaluated by quantitative PCR for XBP1s and total XBP1 transcripts using the 2^(−ΔCT) method for calculating normalized gene expression. Gene expression levels were normalized to ACTB transcripts. XBP1 splicing was calculated as actin-normalized XBP1s expression divided by actin-normalized total XBP1 expression.

IRE1a [5] = assay: IRE1a Endoribonuclease Nanoluciferase Assay (XBP1 luciferase reporter in 293T cells); assay type: cell-based, human; conditions: Homo sapiens, HEK-293T, ER stressor, tested as Formic Acid Salt (37: HCl Salt)
How it was run: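 293T cells transiently transfected with a PGK-Luc2-P2A-XBP1u-Nanoluciferase-Pest reporter, replated after 6 h, then treated next day with ER stressors ± inhibitors. After lysis, firefly luminescence then nanoluciferase luminescence read sequentially (1000 ms integration each).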

in vivo = conditions: mouse, po, 30 mg/kg
hERG channel = target: T1, hERG channel (Homo sapiens, UniProt Q12809); assay: hERG potassium ion channel automated planar clamp (QPatch) in stable CHO cell line; assay type: cell-based; conditions: Formic Acid Salt (37: HCl Salt), read-out: hERG channel blockade Mean IC50
T1 construct: expressed in transfected cells
Experimental: Blockade of the cardiac ion channel coded by the hERG gene can lead to cardiac arrhythmia. […] To determine the viability of the compounds disclosed herein as pharmacological agents that would not affect the hERG channel blockade, a standard automated planar clamp method was employed to determine the IC50 for various test compounds on their inhibition of the channel. An electrophysiological assay was prepared to measure the electric current passing through the hERG channel expressed in a stable CHO cell line by applying the planar clamp method. This assay was performed using the automated QPatch platform (Sophion, Denmark) which allows fast and accurate electrophysiological characterization of the hERG ion channel and the determination of IC50 values for the test compounds, as shown in Table 9.

293T cells = assay: Growth assay (cytotoxicity); assay type: cell-based, human; conditions: Formic Acid Salt (37: HCl Salt)
Experimental: A growth assay was performed to evaluate the compounds disclosed herein for cytotoxicity. Briefly, 5,000,000 293T cells were resuspended in 18 mL of cDMEM for a final concentration of […]. […] In a separate 96 well dilution plate, 199 uL cDMEM and 1 uL of DMSO or any one of the compounds disclosed herein (shown as Test Compound 1, 2, 3, 4, 5, or 6 below) were added to wells A4, A8, C4, C8, E4, E8, G4, and G8, 133.3 uL cDMEM was added to wells 1, 2, 3, 5, 6, and 7 in rows A, C, E and G of the dilution plate. Compounds were serially diluted leftwards in threefold dilutions (66.7 uL into 133.3 uL cDMEM). 20 uL of each dilution was transferred in duplicate (duplicates in vertical paired wells) to the cells plated in the 96-well plate shown in Table 5, to the total concentrations shown below. 200 uL cDMEM was addled to media wells (wells G5-H8). The plate was then placed in a humidified chamber for a […], and then photographed (media was more yellow in wells with potent cell growth). Absorbance was then measured at ˜[…] (lower for more acidic media) and ˜450 nM (higher for more acidic media).

IRE1a [6] = target: T2, IRE1a (Homo sapiens, UniProt O75460); assay: In vitro FRET assay (IRE1a cleavage of XBP1 RNA probe); assay type: biochemical; conditions: 2 nM SignalChem IRE1a, tested as Formic Acid Salt (37: HCl Salt)
T2 construct: purchased SignalChem
How it was run: Human

[7] = Bioavailability assay (pharmacokinetic study); conditions: mouse; IV 1 mg/kg, PO 30 mg/kg (Compound A PO 10 mg/kg)

T1 sequence (Q12809 whole entry): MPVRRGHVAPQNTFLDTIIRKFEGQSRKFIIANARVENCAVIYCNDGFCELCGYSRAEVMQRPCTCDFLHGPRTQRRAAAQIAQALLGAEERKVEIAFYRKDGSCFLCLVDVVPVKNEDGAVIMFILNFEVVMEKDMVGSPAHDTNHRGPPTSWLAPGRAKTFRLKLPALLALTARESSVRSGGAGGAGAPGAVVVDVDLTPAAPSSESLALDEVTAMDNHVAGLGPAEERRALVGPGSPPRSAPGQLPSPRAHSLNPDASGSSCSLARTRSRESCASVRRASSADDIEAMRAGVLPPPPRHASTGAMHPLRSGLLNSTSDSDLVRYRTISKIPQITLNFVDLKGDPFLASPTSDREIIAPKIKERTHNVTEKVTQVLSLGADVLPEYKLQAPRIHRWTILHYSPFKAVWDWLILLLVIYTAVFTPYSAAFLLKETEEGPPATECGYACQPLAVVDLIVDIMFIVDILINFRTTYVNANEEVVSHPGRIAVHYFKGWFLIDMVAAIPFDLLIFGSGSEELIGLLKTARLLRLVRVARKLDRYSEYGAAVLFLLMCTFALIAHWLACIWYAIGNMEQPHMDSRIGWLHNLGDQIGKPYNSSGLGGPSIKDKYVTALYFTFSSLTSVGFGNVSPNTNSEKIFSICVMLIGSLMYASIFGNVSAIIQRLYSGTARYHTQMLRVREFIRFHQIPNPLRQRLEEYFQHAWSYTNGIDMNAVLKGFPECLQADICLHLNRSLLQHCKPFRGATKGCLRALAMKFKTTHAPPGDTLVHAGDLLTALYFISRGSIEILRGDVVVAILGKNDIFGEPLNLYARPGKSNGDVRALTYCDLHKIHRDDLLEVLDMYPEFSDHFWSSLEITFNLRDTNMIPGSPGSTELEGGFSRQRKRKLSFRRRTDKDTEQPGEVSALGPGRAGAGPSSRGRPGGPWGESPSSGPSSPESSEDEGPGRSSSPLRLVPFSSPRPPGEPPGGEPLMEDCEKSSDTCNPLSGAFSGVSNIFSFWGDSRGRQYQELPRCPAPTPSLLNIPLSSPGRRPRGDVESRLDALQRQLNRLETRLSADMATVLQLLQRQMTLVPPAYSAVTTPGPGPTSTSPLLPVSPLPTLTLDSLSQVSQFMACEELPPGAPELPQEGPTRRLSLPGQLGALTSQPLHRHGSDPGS
T2 sequence (O75460 19-977): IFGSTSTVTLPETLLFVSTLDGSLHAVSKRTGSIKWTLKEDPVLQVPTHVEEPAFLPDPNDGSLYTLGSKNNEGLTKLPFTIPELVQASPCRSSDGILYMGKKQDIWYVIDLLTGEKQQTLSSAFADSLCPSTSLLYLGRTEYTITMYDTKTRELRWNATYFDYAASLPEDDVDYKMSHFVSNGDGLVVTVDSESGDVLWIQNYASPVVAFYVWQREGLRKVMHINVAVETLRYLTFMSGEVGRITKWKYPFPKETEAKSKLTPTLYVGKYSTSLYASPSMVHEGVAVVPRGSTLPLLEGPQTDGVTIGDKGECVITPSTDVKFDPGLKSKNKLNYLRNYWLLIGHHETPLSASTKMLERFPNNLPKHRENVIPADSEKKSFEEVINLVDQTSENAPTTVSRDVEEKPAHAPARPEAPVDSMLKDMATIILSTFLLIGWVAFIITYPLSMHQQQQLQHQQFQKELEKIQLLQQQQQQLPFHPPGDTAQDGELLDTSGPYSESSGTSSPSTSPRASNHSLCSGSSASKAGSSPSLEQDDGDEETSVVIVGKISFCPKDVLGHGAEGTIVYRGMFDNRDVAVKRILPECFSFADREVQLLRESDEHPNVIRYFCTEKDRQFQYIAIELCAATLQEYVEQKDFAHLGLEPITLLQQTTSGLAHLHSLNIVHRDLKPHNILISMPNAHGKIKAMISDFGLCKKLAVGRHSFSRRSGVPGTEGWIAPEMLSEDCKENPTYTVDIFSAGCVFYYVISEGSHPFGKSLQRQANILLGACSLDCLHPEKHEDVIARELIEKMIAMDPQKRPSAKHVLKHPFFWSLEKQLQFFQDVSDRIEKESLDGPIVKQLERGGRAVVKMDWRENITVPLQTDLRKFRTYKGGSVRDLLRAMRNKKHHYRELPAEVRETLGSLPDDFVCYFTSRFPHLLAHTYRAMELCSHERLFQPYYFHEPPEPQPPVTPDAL

SMILES	IRE1a-dependent XBP1 splicing in tumor cells and immune cells in vivo [1]	IRE1a-mediated XBP1 splicing in pancreas and salivary gland [2]	metabolism [3]	EC50 (IRE1a [5]) [nM]	bioavailability (in vivo) [%]	other results
CCc1cc(-c2ccc(NS(=O)(=O)c3ccccc3Cl)nc2C)cc2cnc(N[C@H]3CC[C@H](N(C)C)CC3)nc12 [Compound C]	suppressed	potently suppressed	removal of the methyl groups	–	–	concentration sufficient to reduce XBP1s protein levels below the limit of detection (IRE1a [4]): 20 nM; IRE1a phosphorylation (IRE1a [4]; pre-incubation with compound): strongly repressed; accumulation of XBP1s protein (IRE1a [4]; pre-incubation with compound): completely abrogated; shift in potency between Compound A and Compound C (IRE1a/XBP1 pathway): approximately 3.6 ×
CCc1cc(-c2ccc(NS(=O)(=O)c3ccccc3Cl)nc2OC)cc2cnc(N[C@H]3CC[C@H](N(C)C)CC3)nc12 [Compound D]	suppressed	potently suppressed	removal of the methyl groups	–	–	–
CCc1cc(-c2ccc(NS(=O)(=O)c3ccccc3Cl)nc2C)cc2cnc(N[C@H]3CC[C@H](N(C)C)CC3)nc12 [Compound 91, 2-chloro-N-(5-(2-(((1r,4r)-4-(dimethylamino)cyclohexyl)amino)-8-ethylquinazolin-6-yl)-6-methylpyridin-2-yl)benzenesulfonamide]	–	–	–	≤ 5	66	–
CCc1cc(-c2ccc(NS(=O)(=O)c3ccccc3Cl)nc2OC)cc2cnc(N[C@H]3CC[C@H](N)CC3)nc12 [Compound 37, N-(5-(2-(((1r,4r)-4-aminocyclohexyl)amino)-8-ethylquinazolin-6-yl)-6-methoxypyridin-2-yl)-2-chlorobenzene-sulfonamide]	–	–	–	≤ 5	17	IC50 (hERG channel): 10000 to 50000 nM; % Growth at 0.5556 uM (293T cells; 0.5556 uM): D (D: >75% to ≤100%); % Growth at 1.667 uM (293T cells; 1.667 uM): C (C: >50% to ≤75%); % Growth at 5 uM (293T cells; 5 uM): B (B: >25% to ≤50%); IC50 (IRE1a [6]): ≤ 5 nM
CCc1cc(-c2ccc(NS(=O)(=O)c3ccccc3Cl)nc2C)cc2cnc(N[C@H]3CC[C@H](N)CC3)nc12 [Compound A, N-(5-(2-(((1r,4r)-4-aminocyclohexyl)amino)-8-ethylquinazolin-6-yl)-6-methylpyridin-2-yl)-2-chlorobenzenesulfonamide]	–	–	–	–	–	oral bioavailability [7]: 4%
